Laboratory results published in patent US10131652B2, “Pyrimidinyloxy benzene derivatives as herbicides” (E. I. DU PONT DE NEMOURS AND COMPANY, priority 2014, dated 2018).
Where two headings read alike, the source gives them in different places.

Key:
Format in all cases: in vivo
[1] = tested on: large (Lg) crabgrass (Digitaria sanguinalis); experiment: Test B pre-/postemergence plant response; details: for pest or weed control at 1000 g/ha / pest or weed control at 125 g/ha / pest or weed control at 500 g/ha: Digitaria sanguinalis, 240 h, read-out: Plant response rating, Crabgrass, Large; for pest or weed control at 1000 g/ha: 1000 g ai/ha; for pest or weed control at 500 g/ha: 500 g ai/ha
Summary of the method: (§1)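 Evaluation is visual, about 10 days after application, rating injury from 0 (none) to 100 (complete control) relative to untreated controls. Application was a preemergence soil spray on seeded pots or a postemergence spray on one- to two-leaf plants.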

[2] = tested on: morningglory (Ipomoea spp.); experiment: Test B pre-/postemergence plant response; details: for pest or weed control at 1000 g/ha / pest or weed control at 125 g/ha / pest or weed control at 500 g/ha: Ipomoea, 240 h, read-out: Plant response rating, Morningglory; for pest or weed control at 1000 g/ha: 1000 g ai/ha; for pest or weed control at 500 g/ha: 500 g ai/ha
Summary of the method: as §1

[3] = tested on: velvetleaf (Abutilon theophrasti); experiment: Test B pre-/postemergence plant response; details: for pest or weed control at 1000 g/ha / pest or weed control at 125 g/ha / pest or weed control at 500 g/ha: Abutilon theophrasti, 240 h, read-out: Plant response rating, Velvetleaf; for pest or weed control at 1000 g/ha: 1000 g ai/ha; for pest or weed control at 500 g/ha: 500 g ai/ha
Summary of the method: as §1

wild oat (Avena fatua) = experiment: Test E pre-/postemergence plant response; details: scale 0 to 100, read-out: Plant response rating, Oat, Wild; for pest or weed control at 16 g/ha: 16 g ai/ha; for pest or weed control at 31 g/ha: 31 g ai/ha; for pest or weed control at 62 g/ha: 62 g ai/ha; for pest or weed control at 125 g/ha: 125 g ai/ha
Excerpt: (§2) Seeds of plant species selected from bluegrass (annual bluegrass, Poa annua), blackgrass (Alopecurus myosuroides), canarygrass (Phalaris minor), chickweed (common chickweed, Stellaria media), galium (catchweed bedstraw, Galium aparine), downy bromegrass (Bromus tectorum), field poppy (Papaver rhoeas), field violet (Viola arvensis), green foxtail (Setaria viridis), deadnettle (henbit deadnettle, Lamium amplexicaule), Italian ryegrass (Lolium multiflorum), kochia (Kochia scoparia), lambsquarters (Chenopodium album), oilseed rape (Brassica napus), pigweed (Amaranthus retroflexus), Russian thistle (Salsola iberica), chamomile (scentless chamomile, Matricaria inodora), speedwell (bird's-eye speedwell, Veronica persica), spring barley (Hordeum vulgare), spring wheat (Triticum aestivum), wild buckwheat (Polygonum convolvulus), wild mustard (Sinapis arvensis), wild oat (Avena fatua), wild radish (Raphanus raphanistrum), windgrass (Apera spica-venti), winter barley (Hordeum vulgare), and winter wheat (Triticum aestivum) were planted into a silt loam soil and treated preemergence with test chemicals formulated in a non-phytotoxic solvent mixture which included a surfactant. At the same time, these species were planted in pots containing Redi-Earth® planting medium (Scotts Company, 14111 Scottslawn Road, Marysville, Ohio 43041) comprising spaghnum peat moss, vermiculite, wetting agent and starter nutrients and treated with postemergence applications of the test chemicals formulated in the same manner. Plants ranged in height from 2 to 18 cm (1- to 4-leaf stage).
(§3) Treated plants and controls were maintained in a controlled growth environment for 7 to 21 days after which time all species were compared to controls and visually evaluated. Plant response ratings, summarized in Table E, are based on a scale of 0 to 100 where 0 is no effect and 100 is complete control. A dash (-) response means no test result.

[4] = tested on: windgrass (Apera spica-venti); experiment: Test E pre-/postemergence plant response; details: scale 0 to 100, read-out: Plant response rating, Windgrass; for pest or weed control at 16 g/ha: 16 g ai/ha; for pest or weed control at 31 g/ha: 31 g ai/ha; for pest or weed control at 62 g/ha: 62 g ai/ha; for pest or weed control at 125 g/ha: 125 g ai/ha
Excerpt: as §2, §3

[5] = post-emergence, Postemergence, 0 to 100 scale (0 no effect, 100 complete control)
[6] = pre-emergence, Preemergence, 0 to 100 scale (0 no effect, 100 complete control)
[7] = post-emergence, 125 g ai/ha, postemergence, 0 to 100 scale, 0 no effect, 100 complete control
[8] = pre-emergence, Preemergence, 125 g ai/ha, 0 to 100 scale where 0 is no effect and 100 is complete control
[9] = pre-emergence, Preemergence, 0 to 100 scale where 0 is no effect and 100 is complete control
[10] = post-emergence, postemergence, 0 to 100 scale, 0 no effect, 100 complete control
[11] = Preemergence, 125 g ai/ha, 0 to 100 scale (0 no effect, 100 complete control)

FC(F)c1cc(-c2ccccc2Oc2ncc(Cl)cn2)no1 [Compound 35, 5-chloro-2-[2-[5-(difluoromethyl)-3-isoxazolyl]phenoxy]pyrimidine]
pest or weed control at 1000 g/ha [1, 5]: 100%
pest or weed control at 1000 g/ha [1, 6]: 100%
pest or weed control at 1000 g/ha [2, 5]: 100%
pest or weed control at 1000 g/ha [2, 6]: 90%
pest or weed control at 1000 g/ha [3, 5]: 100%
pest or weed control at 1000 g/ha [3, 6]: 100%
pest or weed control at 16 g/ha (wild oat (Avena fatua); post-emergence, Postemergence): 10%
pest or weed control at 31 g/ha (wild oat (Avena fatua); post-emergence, Postemergence): 15%
pest or weed control at 62 g/ha (wild oat (Avena fatua); post-emergence, Postemergence): 35%
pest or weed control at 125 g/ha (wild oat (Avena fatua); post-emergence, Postemergence): 60%
pest or weed control at 16 g/ha (wild oat (Avena fatua); pre-emergence, Preemergence): 0%
pest or weed control at 31 g/ha (wild oat (Avena fatua); pre-emergence, Preemergence): 0%
pest or weed control at 62 g/ha (wild oat (Avena fatua); pre-emergence, Preemergence): 45%
pest or weed control at 125 g/ha (wild oat (Avena fatua); pre-emergence, Preemergence): 35%
pest or weed control at 16 g/ha ([4]; post-emergence, Postemergence): 10%
pest or weed control at 31 g/ha ([4]; post-emergence, Postemergence): 25%
pest or weed control at 62 g/ha ([4]; post-emergence, Postemergence): 30%
pest or weed control at 125 g/ha ([4]; post-emergence, Postemergence): 40%
pest or weed control at 16 g/ha ([4]; pre-emergence, Preemergence): 35%
pest or weed control at 62 g/ha ([4]; pre-emergence, Preemergence): 85%
pest or weed control at 125 g/ha ([4]; pre-emergence, Preemergence): 100%

FC(F)c1cc(-c2ccccc2Oc2ncc(Br)cn2)no1 [Compound 62, 5-bromo-2-[2-[5-(difluoromethyl)-3-isoxazolyl]phenoxy]pyrimidine]
pest or weed control at 125 g/ha [1, 7]: 70%
pest or weed control at 500 g/ha [1, 5]: 90%
pest or weed control at 125 g/ha [1, 8]: 100%
pest or weed control at 500 g/ha [1, 9]: 100%
pest or weed control at 125 g/ha [2, 7]: 90%
pest or weed control at 500 g/ha [2, 5]: 100%
pest or weed control at 125 g/ha [2, 8]: 60%
pest or weed control at 500 g/ha [2, 9]: 90%
pest or weed control at 125 g/ha [3, 7]: 100%
pest or weed control at 500 g/ha [3, 5]: 100%
pest or weed control at 125 g/ha [3, 8]: 90%
pest or weed control at 500 g/ha [3, 9]: 100%
pest or weed control at 16 g/ha (wild oat (Avena fatua); post-emergence, Postemergence): 15%
pest or weed control at 31 g/ha (wild oat (Avena fatua); post-emergence, Postemergence): 25%
pest or weed control at 62 g/ha (wild oat (Avena fatua); post-emergence, Postemergence): 35%
pest or weed control at 125 g/ha (wild oat (Avena fatua); post-emergence, Postemergence): 60%
pest or weed control at 16 g/ha (wild oat (Avena fatua); pre-emergence, Preemergence): 0%
pest or weed control at 31 g/ha (wild oat (Avena fatua); pre-emergence, Preemergence): 10%
pest or weed control at 62 g/ha (wild oat (Avena fatua); pre-emergence, Preemergence): 15%
pest or weed control at 125 g/ha (wild oat (Avena fatua); pre-emergence, Preemergence): 20%
pest or weed control at 16 g/ha ([4]; post-emergence, Postemergence): 10%
pest or weed control at 31 g/ha ([4]; post-emergence, Postemergence): 20%
pest or weed control at 62 g/ha ([4]; post-emergence, Postemergence): 30%
pest or weed control at 125 g/ha ([4]; post-emergence, Postemergence): 65%
pest or weed control at 16 g/ha ([4]; pre-emergence, Preemergence): 0%
pest or weed control at 62 g/ha ([4]; pre-emergence, Preemergence): 50%
pest or weed control at 125 g/ha ([4]; pre-emergence, Preemergence): 50%

Fc1cccc(Oc2ncc(Cl)cn2)c1-c1cc(C(F)(F)F)on1 [Compound 168, 5-chloro-2-[2-[5-(trifluoromethyl)-3-isoxazolyl]-3-fluorophenoxy]pyrimidine]
pest or weed control at 16 g/ha (wild oat (Avena fatua); post-emergence, Postemergence): 5%
pest or weed control at 31 g/ha (wild oat (Avena fatua); post-emergence, Postemergence): 10%
pest or weed control at 62 g/ha (wild oat (Avena fatua); post-emergence, Postemergence): 40%
pest or weed control at 125 g/ha (wild oat (Avena fatua); post-emergence, Postemergence): 65%
pest or weed control at 16 g/ha (wild oat (Avena fatua); pre-emergence, Preemergence): 10%
pest or weed control at 31 g/ha (wild oat (Avena fatua); pre-emergence, Preemergence): 10%
pest or weed control at 62 g/ha (wild oat (Avena fatua); pre-emergence, Preemergence): 35%
pest or weed control at 125 g/ha (wild oat (Avena fatua); pre-emergence, Preemergence): 50%
pest or weed control at 16 g/ha ([4]; post-emergence, Postemergence): 10%
pest or weed control at 31 g/ha ([4]; post-emergence, Postemergence): 15%
pest or weed control at 62 g/ha ([4]; post-emergence, Postemergence): 25%
pest or weed control at 125 g/ha ([4]; post-emergence, Postemergence): 40%
pest or weed control at 16 g/ha ([4]; pre-emergence, Preemergence): 0%
pest or weed control at 62 g/ha ([4]; pre-emergence, Preemergence): 100%
pest or weed control at 125 g/ha ([4]; pre-emergence, Preemergence): 100%

FC(F)(F)c1cc(-c2ccccc2Oc2ncc(Cl)cn2)no1 [Compound 200, 5-chloro-2-[2-[5-(trifluoromethyl)-3-isoxazolyl]phenoxy]pyrimidine]
pest or weed control at 125 g/ha [1, 7]: 100%
pest or weed control at 500 g/ha [1, 10]: 100%
pest or weed control at 500 g/ha [1, 9]: 100%
Crabgrass, Large plant response rating [1, 11]: 100
pest or weed control at 125 g/ha [2, 7]: 90%
pest or weed control at 500 g/ha [2, 10]: 100%
pest or weed control at 500 g/ha [2, 9]: 100%
Morningglory plant response rating [2, 11]: 20
pest or weed control at 125 g/ha [3, 7]: 100%
pest or weed control at 500 g/ha [3, 10]: 100%
pest or weed control at 500 g/ha [3, 9]: 90%
Velvetleaf plant response rating [3, 11]: 80
pest or weed control at 16 g/ha (wild oat (Avena fatua); post-emergence, Postemergence): 10%
pest or weed control at 31 g/ha (wild oat (Avena fatua); post-emergence, Postemergence): 20%
pest or weed control at 62 g/ha (wild oat (Avena fatua); post-emergence, Postemergence): 30%
pest or weed control at 125 g/ha (wild oat (Avena fatua); post-emergence, Postemergence): 35%
pest or weed control at 16 g/ha (wild oat (Avena fatua); pre-emergence, Preemergence): 0%
pest or weed control at 31 g/ha (wild oat (Avena fatua); pre-emergence, Preemergence): 0%
pest or weed control at 62 g/ha (wild oat (Avena fatua); pre-emergence, Preemergence): 30%
pest or weed control at 125 g/ha (wild oat (Avena fatua); pre-emergence, Preemergence): 75%
pest or weed control at 16 g/ha ([4]; post-emergence, Postemergence): 10%
pest or weed control at 31 g/ha ([4]; post-emergence, Postemergence): 20%
pest or weed control at 62 g/ha ([4]; post-emergence, Postemergence): 35%
pest or weed control at 125 g/ha ([4]; post-emergence, Postemergence): 45%
pest or weed control at 16 g/ha ([4]; pre-emergence, Preemergence): 15%
pest or weed control at 62 g/ha ([4]; pre-emergence, Preemergence): 100%
pest or weed control at 125 g/ha ([4]; pre-emergence, Preemergence): 100%
